Converted amounts (≈) assume the structure as drawn.
What was measured:
Format in all cases: functional
Escherichia coli [1] = experiment: Antimicrobial activity against extended-spectrum beta lactamase producing Escherichia coli by Etest
Klebsiella pneumoniae [2] = experiment: Antimicrobial activity against extended-spectrum beta lactamase producing Klebsiella pneumoniae by Etest
Escherichia coli [3] = experiment: Antimicrobial activity against extended-spectrum beta lactamase producing Escherichia coli expressing beta-lactamase CTX-M-3, CTX-M-15 and CTX-M-55 gene by Etest
Klebsiella pneumoniae [4] = experiment: Antimicrobial activity against extended-spectrum beta lactamase producing Klebsiella pneumoniae expressing beta-lactamase CTX-M-3, CTX-M-15 and CTX-M-55 gene by Etest
Escherichia coli [5] = experiment: Antimicrobial activity against extended-spectrum beta lactamase producing Escherichia coli expressing beta-lactamase CTX-M-3, CTX-M-15 and CTX-M-55 and other bla gene by Etest
Klebsiella pneumoniae [6] = experiment: Antimicrobial activity against extended-spectrum beta lactamase producing Klebsiella pneumoniae expressing beta-lactamase CTX-M-3, CTX-M-15 and CTX-M-55 and other bla gene by Etest
Escherichia coli [7] = experiment: Antimicrobial activity against extended-spectrum beta lactamase producing Escherichia coli expressing beta-lactamase CTX-M-14 and CTX-M-27 gene by Etest
Klebsiella pneumoniae [8] = experiment: Antimicrobial activity against extended-spectrum beta lactamase producing Klebsiella pneumoniae expressing beta-lactamase CTX-M-14 and CTX-M-27 gene by Etest
Escherichia coli [9] = experiment: Antimicrobial activity against extended-spectrum beta lactamase producing Escherichia coli expressing beta-lactamase CTX-M-14 and CTX-M-27 and other bla gene by Etest
Klebsiella pneumoniae [10] = experiment: Antimicrobial activity against extended-spectrum beta lactamase producing Klebsiella pneumoniae expressing beta-lactamase CTX-M-14 and CTX-M-27 gene and other bla gene by Etest
Escherichia coli [11] = experiment: Antimicrobial activity against extended-spectrum beta lactamase producing Escherichia coli assessed as resistant isolates by Etest
Klebsiella pneumoniae [12] = experiment: Antimicrobial activity against extended-spectrum beta lactamase producing Klebsiella pneumoniae assessed as resistant isolates by Etest
Escherichia coli [13] = experiment: Antimicrobial activity against extended-spectrum beta lactamase producing Escherichia coli expressing beta-lactamase CTX-M-3, CTX-M-15 and CTX-M-55 gene assessed as susceptible isolates by Etest
Klebsiella pneumoniae [14] = experiment: Antimicrobial activity against extended-spectrum beta lactamase producing Klebsiella pneumoniae expressing beta-lactamase CTX-M-3, CTX-M-15 and CTX-M-55 gene assessed as susceptible isolates by Etest
Escherichia coli [15] = experiment: Antimicrobial activity against extended-spectrum beta lactamase producing Escherichia coli expressing beta-lactamase CTX-M-3, CTX-M-15 and CTX-M-55 and other bla gene assessed as susceptible isolates by Etest
Klebsiella pneumoniae [16] = experiment: Antimicrobial activity against extended-spectrum beta lactamase producing Klebsiella pneumoniae expressing beta-lactamase CTX-M-3, CTX-M-15 and CTX-M-55 and other bla gene assessed as susceptible isolates by Etest
Escherichia coli [17] = experiment: Antimicrobial activity against extended-spectrum beta lactamase producing Escherichia coli expressing beta-lactamase CTX-M-14 and CTX-M-27 gene assessed as susceptible isolates by Etest; details: pooled result: one value given for 2 cell lines, strains, targets or settings
Escherichia coli [18] = experiment: Antimicrobial activity against extended-spectrum beta lactamase producing Escherichia coli expressing beta-lactamase CTX-M-14 and CTX-M-27 gene and other bla gene assessed as susceptible isolates by Etest; details: pooled result: one value given for 2 cell lines, strains, targets or settings

Compound	MIC50 (Escherichia coli [1]) [µg/mL]	MIC90 (Escherichia coli [1]) [µg/mL]	MIC50 (Klebsiella pneumoniae [2]) [µg/mL]	MIC90 (Klebsiella pneumoniae [2]) [µg/mL]	MIC90 (Escherichia coli [3]) [µg/mL]	MIC90 (Klebsiella pneumoniae [4]) [µg/mL]	MIC90 (Escherichia coli [5]) [µg/mL]	MIC90 (Klebsiella pneumoniae [6]) [µg/mL]	MIC90 (Escherichia coli [7]) [µg/mL]	MIC90 (Klebsiella pneumoniae [8]) [µg/mL]	MIC90 (Escherichia coli [9]) [µg/mL]	MIC90 (Klebsiella pneumoniae [10]) [µg/mL]	Activity (Escherichia coli [11]) [%]	Activity (Klebsiella pneumoniae [12]) [%]	Activity (Escherichia coli [13]) [%]	Activity (Klebsiella pneumoniae [14]) [%]	Activity (Escherichia coli [15]) [%]	Activity (Klebsiella pneumoniae [16]) [%]	Activity (Escherichia coli [17]) [%]	Activity (Escherichia coli [18]) [%]
C[C@@H](O)[C@H]1C(=O)N2C(C(=O)O)=C(S[C@@H]3CN[C@H](C(=O)Nc4cccc(C(=O)O)c4)C3)[C@H](C)[C@H]12 [ERTAPENEM]	0.094 (≈ 0.198 µM)	0.38 (≈ 0.799 µM)	0.094 (≈ 0.198 µM)	0.38 (≈ 0.799 µM)	0.38 (≈ 0.799 µM)	0.38 (≈ 0.799 µM)	0.5 (≈ 1.05 µM)	0.5 (≈ 1.05 µM)	0.19 (≈ 0.4 µM)	0.19 (≈ 0.4 µM)	0.25 (≈ 0.526 µM)	0.25 (≈ 0.526 µM)								
CN(C)[C@@H]1C(O)=C(C(N)=O)C(=O)[C@@]2(O)C(O)=C3C(=O)c4c(O)cccc4[C@@](C)(O)[C@H]3C[C@@H]12 [TETRACYCLINE]													87.5	85.7	4.8	4.8	4.9	4.9	16.7	5.9
GENTAMICIN													66.3	76.4	24.1	24.1	19	19	33.3	30.3
C[C@@H](O)[C@H]1C(=O)N2C(C(=O)O)=C(SCCNC=N)C[C@H]12 [IMIPENEM ANHYDROUS]			0.25 (≈ 0.835 µM)	0.38 (≈ 1.27 µM)	0.5 (≈ 1.67 µM)	0.5 (≈ 1.67 µM)	0.38 (≈ 1.27 µM)	0.38 (≈ 1.27 µM)	0.5 (≈ 1.67 µM)	0.5 (≈ 1.67 µM)	0.38 (≈ 1.27 µM)	0.38 (≈ 1.27 µM)								
C[C@@H](O)[C@H]1C(=O)N2C(C(=O)O)=C(S[C@@H]3CN[C@H](C(=O)N(C)C)C3)[C@H](C)[C@H]12 [MEROPENEM]	0.047 (≈ 0.123 µM)	0.125 (≈ 0.326 µM)	0.047 (≈ 0.123 µM)	0.125 (≈ 0.326 µM)	0.19 (≈ 0.495 µM)	0.19 (≈ 0.495 µM)	0.125 (≈ 0.326 µM)	0.125 (≈ 0.326 µM)	0.094 (≈ 0.245 µM)	0.094 (≈ 0.245 µM)	0.064 (≈ 0.167 µM)	0.064 (≈ 0.167 µM)								
CO/N=C(\C(=O)N[C@@H]1C(=O)N2C(C(=O)O)=C(COC(C)=O)CS[C@H]12)c1csc(N)n1 [CEFOTAXIME]	256 (≈ 562 µM)	> 256	128 (≈ 281 µM)	> 256	> 256	> 256	> 256	> 256	128 (≈ 281 µM)	128 (≈ 281 µM)	256 (≈ 562 µM)	256 (≈ 562 µM)								
O=C(O)c1cn(C2CC2)c2cc(N3CCNCC3)c(F)cc2c1=O [CIPROFLOXACIN]													78.1	76.6	20.4	20.4	11.1	11.1	25.7	8.3
CC(C)(O/N=C(\C(=O)N[C@@H]1C(=O)N2C(C(=O)[O-])=C(C[n+]3ccccc3)CS[C@H]12)c1csc(N)n1)C(=O)O [CEFTAZIDIME]	32 (≈ 58.5 µM)	256 (≈ 468 µM)	128 (≈ 234 µM)	> 256	256 (≈ 468 µM)	256 (≈ 468 µM)	> 256	> 256	16 (≈ 29.3 µM)	16 (≈ 29.3 µM)	> 256	> 256								
CO/N=C(\C(=O)N[C@@H]1C(=O)N2C(C(=O)O)=C(CSc3nc(=O)c(O)nn3C)CS[C@H]12)c1csc(N)n1 [CEFTRIAXONE]	> 256	> 256	> 256	> 256	> 256	> 256	> 256	> 256	> 256	> 256	> 256	> 256								
NCC[C@H](O)C(=O)N[C@@H]1C[C@H](N)[C@@H](O[C@H]2O[C@H](CN)[C@@H](O)[C@H](O)[C@H]2O)[C@H](O)[C@H]1O[C@H]1O[C@H](CO)[C@@H](O)[C@H](N)[C@H]1O [AMIKACIN]													12.5	28.6	81	81	81	81	83.3	78.9

— ChEMBL document CHEMBL1275460, “Molecular characterization and epidemiology of extended-spectrum-beta-lactamase-producing Escherichia coli and Klebsiella pneumoniae isolates causing health care-associated infection in Thailand, where the CTX-M family is endemic” (2008)
